Assay results: ChEMBL document CHEMBL5154842, “Unique Carbazole-Oxadiazole Derivatives as New Potential Antibiotics for Combating Gram-Positive and -Negative Bacteria” (J Med Chem, 2022)
Values after ≈ are worked out from the molar mass of the structure shown. Active and inactive are the calls of the source. The calls are words filed in the database; no cut-off is given here.

Assays:
Staphylococcus aureus [1] = experiment: Antibacterial activity against methicillin-resistant Staphylococcus aureus N315 assessed as inhibition of bacterial growth incubated for 24 hrs by CLSI protocol based two fold serial dilution method; format: functional
Enterococcus faecalis = experiment: Antibacterial activity against Enterococcus faecalis assessed as inhibition of bacterial growth incubated for 24 hrs by CLSI protocol based two fold serial dilution method; format: functional
Staphylococcus aureus [2] = experiment: Antibacterial activity against Staphylococcus aureus assessed as inhibition of bacterial growth incubated for 24 hrs by CLSI protocol based two fold serial dilution method; format: functional
Staphylococcus aureus [3] = experiment: Antibacterial activity against Staphylococcus aureus 25923 assessed as inhibition of bacterial growth incubated for 24 hrs by CLSI protocol based two fold serial dilution method; format: functional
Staphylococcus aureus [4] = experiment: Antibacterial activity against Staphylococcus aureus 29213 assessed as inhibition of bacterial growth incubated for 24 hrs by CLSI protocol based two fold serial dilution method; format: functional
Klebsiella pneumoniae = experiment: Antibacterial activity against Klebsiella pneumonia assessed as inhibition of bacterial growth incubated for 24 hrs by CLSI protocol based two fold serial dilution method; format: functional
Escherichia coli [5] = experiment: Antibacterial activity against Escherichia coli assessed as inhibition of bacterial growth incubated for 24 hrs by CLSI protocol based two fold serial dilution method; format: functional
Escherichia coli [6] = experiment: Antibacterial activity against Escherichia coli 25922 assessed as inhibition of bacterial growth incubated for 24 hrs by CLSI protocol based two fold serial dilution method; format: functional
Pseudomonas aeruginosa [7] = experiment: Antibacterial activity against Pseudomonas aeruginosa assessed as inhibition of bacterial growth incubated for 24 hrs by CLSI protocol based two fold serial dilution method; format: functional
Pseudomonas aeruginosa [8] = experiment: Antibacterial activity against Pseudomonas aeruginosa ATCC 27853 assessed as inhibition of bacterial growth incubated for 24 hrs by CLSI protocol based two fold serial dilution method; format: functional
Acinetobacter baumannii = experiment: Antibacterial activity against Acinetobacter baumannii assessed as inhibition of bacterial growth incubated for 24 hrs by CLSI protocol based two fold serial dilution method; format: functional
Staphylococcus aureus [9] = experiment: Antibacterial activity against methicillin-resistant Staphylococcus aureus N315 assessed as change in susceptibility at sub-MIC treated over 9 serial passages measured after 9 days by resistance development assay; format: functional, organism-based; conditions: time 9.0 day
Staphylococcus aureus [10] = experiment: Antibacterial activity against methicillin-resistant Staphylococcus aureus N315 assessed as inhibition of bacterial growth at 0.5 to 16 ug/ml measured after 24 hrs by microplate reader assay; format: functional, organism-based; conditions: dose 0.5-16 µg/ml
Staphylococcus aureus [11] = experiment: Antibacterial activity against methicillin-resistant Staphylococcus aureus N315 assessed as increase in germicidal effect at 0.5 ug/ml measured after 7 hrs by microplate reader assay; format: functional, organism-based; conditions: dose 0.5 µg/ml
[12] = Hemolytic activity in human RBC assessed as hemolysis at 1 to 32 ug/ml measured after 60 mins by microplate reader assay relative to control; format: toxicity, cell-based, Erythrocyte; conditions: red blood cells (erythrocytes), at 1 to 32 µg/mL, dose 1-32 µg/ml, read-out: Activity
Cell membrane [13] = experiment: Induction of inner membrane permeabilization in methicillin-resistant Staphylococcus aureus N315 assessed as increase in PI uptake by measuring increase in fluorescence intensity at 1 to 8 ug/ml incubated for 30 mins by calcein-AM/PI staining based fluorescence microscopic analysis; conditions: dose 1-8 µg/ml, DDE = dose-dependent effect
Cell membrane [14] = experiment: Induction of cell membrane disruption in methicillin-resistant Staphylococcus aureus N315 assessed as increase in protein leakage at 0.5 to 6 ug/ml incubated under agitation condition by Bradford assay; conditions: dose 0.5-6 µg/ml
Cell membrane [15] = experiment: Induction of cell membrane disruption in methicillin-resistant Staphylococcus aureus N315 assessed as increase in nucleotides leakage at 0.5 to 6 ug/ml incubated under agitation condition by UV absorption based analysis; format: subcellular; conditions: dose 0.5-6 µg/ml
Staphylococcus aureus [16] = experiment: Antibacterial activity against methicillin-resistant Staphylococcus aureus N315 assessed as inhibition of bacterial growth at 0.25 to 64 ug/ml incubated for 24 hrs by Alamar blue assay; format: functional, organism-based; conditions: dose 0.25-64 µg/ml
Staphylococcus aureus [17] = experiment: Antibacterial activity against methicillin-resistant Staphylococcus aureus N315 assessed as increase in bactericidal effect at 2 to 8 ug/ml measured after 24 hrs by microplate reader assay; format: functional, organism-based; conditions: dose 2-8 µg/ml
HEK-293T = experiment: Cytotoxicity against human HEK293T cells assessed as cell viability at 0.5 to 64 ug/ml incubated for 24 hrs by MTT assay; format: toxicity, cell-based; conditions: dose 0.5-64 µg/ml
HeLa = experiment: Cytotoxicity against human HeLa cells assessed as cell viability at 0.5 to 64 ug/ml incubated for 24 hrs by MTT assay; format: toxicity, cell-based; conditions: dose 0.5-64 µg/ml
[18] = Toxicity against Balb/c mouse assessed as body weight at 100 mg/kg, iv administered every 2 days measured after 1 week; format: organism-based; conditions: in vivo, 168 h, time 1 weeks
Staphylococcus aureus [19] = experiment: Antibacterial activity against methicillin-resistant Staphylococcus aureus ATCC 43300 assessed as inhibition of bacterial growth incubated for 24 hrs by CLSI protocol based two fold serial dilution method; format: functional
Staphylococcus aureus [20] = experiment: Antibacterial activity against Staphylococcus aureus CMCC (B) 26003 assessed as inhibition of bacterial growth incubated for 24 hrs by CLSI protocol based two fold serial dilution method; format: functional
Staphylococcus aureus [21] = experiment: Antibacterial activity against Staphylococcus aureus CMCC (B) 26001 assessed as inhibition of bacterial growth incubated for 24 hrs by CLSI protocol based two fold serial dilution method; format: functional
Staphylococcus aureus [22] = experiment: Antibacterial activity against Staphylococcus aureus ATCC 12600 assessed as inhibition of bacterial growth incubated for 24 hrs by CLSI protocol based two fold serial dilution method; format: functional
Staphylococcus aureus [23] = experiment: Antibacterial activity against Staphylococcus aureus ATCC 6583 assessed as inhibition of bacterial growth incubated for 24 hrs by CLSI protocol based two fold serial dilution method; format: functional
Staphylococcus aureus [24] = experiment: Antibacterial activity against methicillin-resistant Staphylococcus aureus N315 assessed as increase in germicidal effect at 4 ug/ml measured after 7 hrs by microplate reader assay; format: functional, organism-based; conditions: dose 4.0 µg/ml
Erythrocyte = experiment: Hemolytic activity in human RBC assessed as hemolysis rate at 1 to 32 ug/ml measured after 60 mins by microplate reader assay; format: toxicity, cell-based; conditions: 1 h, dose 1-32 µg/ml
Cell membrane [25] = experiment: Induction of outer membrane permeabilization in Pseudomonas aeruginosa ATCC 27853 assessed as increase in NPN uptake by measuring increase in fluorescence intensity at 1 ug/ml by NPN-dye based fluorescence analysis; conditions: dose 1.0 µg/ml
Cell membrane [26] = experiment: Induction of inner membrane permeabilization in Pseudomonas aeruginosa ATCC 27853 assessed as increase in PI uptake by measuring increase in fluorescence intensity at 1 to 8 ug/ml incubated for 30 mins by calcein-AM/PI staining based fluorescence microscopic analysis; conditions: dose 1-8 µg/ml
Cell membrane [27] = experiment: Induction of cell membrane disruption in Pseudomonas aeruginosa ATCC 27853 assessed as increase in protein leakage at 0.5 to 6 ug/ml incubated under agitation condition by Bradford assay; conditions: dose 0.5-6 µg/ml
Cell membrane [28] = experiment: Induction of cell membrane disruption in Pseudomonas aeruginosa ATCC 27853 assessed as increase in nucleotides leakage at 0.5 to 6 ug/ml incubated under agitation condition by UV absorption based analysis; format: subcellular; conditions: dose 0.5-6 µg/ml

| Structure (SMILES) | MIC (Staphylococcus aureus [1]) | MIC (Enterococcus faecalis) | MIC (Staphylococcus aureus [2]) | MIC (Staphylococcus aureus [3]) | MIC (Staphylococcus aureus [4]) | MIC (Klebsiella pneumoniae) | MIC (Escherichia coli [5]) | MIC (Escherichia coli [6]) | MIC (Pseudomonas aeruginosa [7]) | MIC (Pseudomonas aeruginosa [8]) | MIC (Acinetobacter baumannii) | Activity (Staphylococcus aureus [9]) | Activity (Staphylococcus aureus [10]) | Activity (Staphylococcus aureus [11]) | hemolysis at 1 h [12] | Activity (Cell membrane [13]) | Activity (Cell membrane [14]) | Activity (Staphylococcus aureus [16]) | Activity (HEK-293T) | Activity (HeLa) | also measured |
| --- | --- | --- | --- | --- | --- | --- | --- | --- | --- | --- | --- | --- | --- | --- | --- | --- | --- | --- | --- | --- | --- |
| Sc1nnc(Cn2c3ccccc3c3c(OCC4CC4)cccc32)o1 | 0.5 µg/mL (≈ 1.42 µM) | 2 µg/mL (≈ 5.69 µM) | 256 µg/mL (≈ 728 µM) | 4 µg/mL (≈ 11.4 µM) | 1 µg/mL (≈ 2.85 µM) | 4 µg/mL (≈ 11.4 µM) | 2 µg/mL (≈ 5.69 µM) | 1 µg/mL (≈ 2.85 µM) | 256 µg/mL (≈ 728 µM) | 4 µg/mL (≈ 11.4 µM) | 4 µg/mL (≈ 11.4 µM) | Active | Active | Active | < 3% | Dde | Active | Active | – | – | Activity (Cell membrane [15]): Active |
| C=CCOc1cccc2c1c1ccccc1n2Cc1nnc(S)o1 | 2 µg/mL (≈ 5.93 µM) | 1 µg/mL (≈ 2.96 µM) | 256 µg/mL (≈ 759 µM) | 8 µg/mL (≈ 23.7 µM) | 0.25 µg/mL (≈ 0.741 µM) | 4 µg/mL (≈ 11.9 µM) | 4 µg/mL (≈ 11.9 µM) | 0.25 µg/mL (≈ 0.741 µM) | 128 µg/mL (≈ 379 µM) | 4 µg/mL (≈ 11.9 µM) | 0.25 µg/mL (≈ 0.741 µM) | – | Active | – | < 3% | Dde | Active | Active | Non-Toxic | Non-Toxic | Activity (Staphylococcus aureus [17]): Active; Activity [18]: Non-Toxic; Activity (Cell membrane [15]): Active; MIC (Staphylococcus aureus [19]): 0.25 µg/mL (≈ 0.741 µM); MIC (Staphylococcus aureus [20]): 0.25 µg/mL (≈ 0.741 µM); MIC (Staphylococcus aureus [21]): 0.25 µg/mL (≈ 0.741 µM); MIC (Staphylococcus aureus [22]): 0.25 µg/mL (≈ 0.741 µM); MIC (Staphylococcus aureus [23]): 0.25 µg/mL (≈ 0.741 µM) |
| Sc1nnc(Cn2c3ccccc3c3c(OCC4CCCCC4)cccc32)o1 | 0.25 µg/mL (≈ 0.635 µM) | 4 µg/mL (≈ 10.2 µM) | 256 µg/mL (≈ 651 µM) | 4 µg/mL (≈ 10.2 µM) | 4 µg/mL (≈ 10.2 µM) | 4 µg/mL (≈ 10.2 µM) | 1 µg/mL (≈ 2.54 µM) | 0.25 µg/mL (≈ 0.635 µM) | 128 µg/mL (≈ 325 µM) | 4 µg/mL (≈ 10.2 µM) | 0.5 µg/mL (≈ 1.27 µM) | Active | Active | – | – | – | – | Active | – | – | Activity (Staphylococcus aureus [24]): Active; Activity (Erythrocyte): Toxic |
| CCn1c2ccccc2c2c(OCc3nnn[nH]3)cccc21 | 2 µg/mL (≈ 6.82 µM) | 4 µg/mL (≈ 13.6 µM) | 128 µg/mL (≈ 436 µM) | 32 µg/mL (≈ 109 µM) | 32 µg/mL (≈ 109 µM) | 64 µg/mL (≈ 218 µM) | 8 µg/mL (≈ 27.3 µM) | 64 µg/mL (≈ 218 µM) | 256 µg/mL (≈ 873 µM) | 1 µg/mL (≈ 3.41 µM) | 64 µg/mL (≈ 218 µM) | – | Active | – | < 3% | – | – | Active | Non-Toxic | Non-Toxic | Activity (Cell membrane [25]): Active; Activity (Cell membrane [26]): Active; Activity (Cell membrane [27]): Active; Activity (Cell membrane [28]): Active |
| C=CCn1c2ccccc2c2c(OCc3nnn[nH]3)cccc21 | 2 µg/mL (≈ 6.55 µM) | 4 µg/mL (≈ 13.1 µM) | 128 µg/mL (≈ 419 µM) | 64 µg/mL (≈ 210 µM) | 32 µg/mL (≈ 105 µM) | 64 µg/mL (≈ 210 µM) | 1 µg/mL (≈ 3.28 µM) | 32 µg/mL (≈ 105 µM) | 128 µg/mL (≈ 419 µM) | 0.5 µg/mL (≈ 1.64 µM) | 128 µg/mL (≈ 419 µM) | – | Active | Active | < 3% | – | – | Active | Non-Toxic | Non-Toxic | Activity (Cell membrane [25]): Active; Activity (Cell membrane [26]): Active; Activity (Cell membrane [27]): Active; Activity (Cell membrane [28]): Active |
